Results taken from patent publication US4963526A, “Oral insulin and a method of making the same” (priority 1988, dated 1990).

System: white laboratory rats
Assay: Blood glucose level in rats before and three hours after administration of the oral insulin preparation
Assay type: in vivo
Conditions: white laboratory rat, 5 units of bovine insulin, three hours after administration
Experimental: Two white laboratory rats, weighing 177 and 197 grams, respectively, were used in this experiment. One rat was administered a preparation of oral insulin according to the present invention containing 5 units of insulin; a formulation of the oral insulin according to the present invention containing 10 units of bovine insulin was administered to the second rat. Blood samples were drawn from each animal before and three hours after administration of the oral insulin preparation. The results given below are expressed as the percentage of the pre-experiment blood glucose level.
One white laboratory rat weighing 181 grams received a non-encapsulated preparation containing 5 units of free bovine insulin. This animal served as the control. After three hours, blood glucose level was 98.7% of the pre-experiment blood glucose level.

## free bovine insulin: non-encapsulated preparation containing 5 units of free bovine insulin; served as the control
  blood glucose level as percentage of the pre-experiment (initial) blood glucose level: 98.7 % of initial blood glucose lev
